Experimental findings from patent US20130165440A1, “JAK1 Inhibitors” (EXELIXIS, INC., priority 2010, published 2013) are described below.

The target of the experiment is T1, recombinant JAK1 enzyme (Homo sapiens, UniProt P23458).
T1 construct: 8 nM of recombinant JAK1 enzyme (Insect expressed: V866-K1155); host or cells: insect cells
T1 sequence (P23458 865-1154 limits assumed): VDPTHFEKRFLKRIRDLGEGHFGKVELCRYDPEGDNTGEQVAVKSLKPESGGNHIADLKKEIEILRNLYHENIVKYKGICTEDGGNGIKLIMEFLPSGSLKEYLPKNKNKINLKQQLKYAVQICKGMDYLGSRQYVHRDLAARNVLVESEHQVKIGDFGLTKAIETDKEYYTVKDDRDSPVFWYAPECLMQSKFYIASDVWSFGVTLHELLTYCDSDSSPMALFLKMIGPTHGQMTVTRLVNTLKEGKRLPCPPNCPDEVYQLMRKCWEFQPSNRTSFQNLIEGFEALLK
Put plainly: JAK1 Kinase Assay (luciferase-luciferin-coupled chemiluminescence, ATP consumption). In kind it is biochemical. The conditions noted are these: 8 nM JAK1 (V866-K1155), 30 μM IRS-1 peptide (Y608), 2 μM ATP, 2 hours ambient temperature, KinaseGlo; read-out: JAK1 IRS-1tide Chemilum (IC50). As to the method: JAK1 Kinase Assay Used to Test Compounds
JAK1 Kinase activity was measured as the percent of ATP consumed following the kinase reaction using luciferase-luciferin-coupled chemiluminescence. The reaction was conducted in white medium binding 384-well microtiter plates. The kinase reaction were initiated by combining test compounds, 8 nM of recombinant JAK1 enzyme (Insect expressed: V866-K1155), 30 μM of IRS-1 peptide (Y608) and 2 μM ATP in buffer containing 20 mM Hepes (pH 7.5), 10 mM MgCl2, 0.01% Brij, 5% glycerol and 1 mM DTT in a 20 μL volume. The reaction mixture was incubated at ambient temperature for 2 hours. Following the kinase reaction, a 20 μL aliquot of KinaseGlo was added to stop the reaction and measure remaining ATP via detection of chemiluminescence using the Envison reader. Total ATP consumption was limited to 25-60%.
Background: Kinase-Glo measures the ATP left after a reaction by luminescence.
Usually IC50 stands for the concentration at which inhibition is half-maximal. Turning to `COC(=O)c1ccc(-c2nnc(Nc3cccc(C)c3)c3ccccc23)cc1` [Compound 47], the IC50 lay within 500 to 1000 nM.

With `O=C1CCCN1c1ccc(-c2nnc(Nc3cc(C(F)(F)F)cc(C(F)(F)F)c3)c3ccccc23)cc1` [Compound 48, 1-[4-(4-{[3,5-bis(trifluoromethyl)phenyl]amino}phthalazin-1-yl)phenyl]pyrrolidin-2-one], the IC50 lay within 2000 to 30000 nM. For the compound `O=C(NCCN1CCOCC1)c1ccc(-c2nnc(Nc3cc(C(F)(F)F)cc(C(F)(F)F)c3)c3ccccc23)cc1` [Compound 49, 4-(4-{[3,5-bis(trifluoromethyl)phenyl]amino}phthalazin-1-yl)-N-(2-morpholin-4-ylethyl)benzamide], the IC50 lay in the range of 500 to 1000 nM. With `CC(=O)c1cccc(-c2nnc(Nc3cc(C(F)(F)F)cc(C(F)(F)F)c3)c3ccccc23)c1` [Compound 50, 1-[3-(4-{[3,5-bis(trifluoromethyl)phenyl]amino}phthalazin-1-yl)phenyl]ethanone] the figure was 2000 to 30000 nM. `COC(=O)c1ccc(-c2nnc(Nc3cccc(Br)c3)c3ccccc23)cc1` [Compound 51, methyl 4-{4-[(3-bromophenyl)amino]phthalazin-1-yl}benzoate]: the IC50 was in the range of 150 to 500 nM. As to `FC(F)(F)c1cc(Nc2nnc(-c3ccc(-c4cc[nH]n4)cc3)c3ccccc23)cc(C(F)(F)F)c1` [Compound 52, N-[3,5-bis(trifluoromethyl)phenyl]-4-[4-(1H-pyrazol-3-yl)phenyl]phthalazin-1-amine], the 50% inhibitory concentration (IC50) fell in the range of 150 to 500 nM.

For `COC(=O)c1ccc(-c2nnc(Nc3ccc(F)c(C(F)(F)F)c3)c3ccccc23)cc1` [Compound 53, methyl 4-(4-{[4-fluoro-3-(trifluoromethyl)phenyl]amino}phthalazin-1-yl)benzoate], the IC50 is 500 to 1000 nM. The same measure for `COC(=O)c1ccc(-c2nnc(Nc3cccc(C#N)c3)c3ccccc23)cc1` [Compound 54, methyl 4-{4-[(3-cyanophenyl)amino]phthalazin-1-yl}benzoate]: 2000 to 30000 nM; for `CNC(=O)c1ccc(-c2nnc(Nc3cc(C(F)(F)F)cc(C(F)(F)F)c3)c3ccccc23)cc1` [Compound 55, 4-(4-{[3,5-bis(trifluoromethyl)phenyl]amino}phthalazin-1-yl)-N-methylbenzamide]: 150 to 500 nM. The same measure for `Cc1n[nH]c2cc(-c3nnc(Nc4cc(C(F)(F)F)cc(C(F)(F)F)c4)c4ccccc34)ccc12` [Compound 56, N-[3,5-bis(trifluoromethyl)phenyl]-4-(3-methyl-1H-indazol-6-yl)phthalazin-1-amine]: 150 to 500 nM; for `COC(=O)c1ccc(-c2nnc(Nc3cccc(C(C)C)c3)c3cnccc23)cc1` [Compound 57, methyl 4-(4-{[3-(1-methylethyl)phenyl]amino}pyrido[3,4-d]pyridazin-1-yl)benzoate]: 500 to 1000 nM. In the case of `COC(=O)c1ccc(-c2nnc(Nc3cccc(C(F)(F)F)c3)c3ccccc23)cc1` [Compound 58, methyl 4-(4-{[3-(trifluoromethyl)phenyl]amino}phthalazin-1-yl)benzoate], the IC50 was no more than 150 nM.

In the case of `COC(=O)c1ccc(-c2nnc(Nc3cc(C)cc(Br)c3)c3ccccc23)cc1` [Compound 59, methyl 4-{4-[(3-bromo-5-methylphenyl)amino]phthalazin-1-yl}benzoate], the IC50 lay in the range of 150 to 500 nM. For the compound `COC(=O)c1ccc(-c2nnc(Nc3cc(CCN(C)C)cc(C(F)(F)F)c3)c3ccccc23)cc1` [Compound 60, methyl 4-[4-({3-[2-(dimethylamino)ethyl]-5-(trifluoromethyl)phenyl}amino)phthalazin-1-yl]benzoate], the IC50 fell in the range of 500 to 1000 nM.

Turning to `Cc1cc(-c2ccc(-c3nnc(Nc4cc(C(F)(F)F)cc(C(F)(F)F)c4)c4ccccc34)cc2)n[nH]1` [Compound 61, N-[3,5-bis(trifluoromethyl)phenyl]-4-[4-(5-methyl-1H-pyrazol-3-yl)phenyl]phthalazin-1-amine], the IC50 lay in the range of 500 to 1000 nM.

Turning to `COC(=O)c1ccc(-c2nnc(Nc3cccc(C(C)C)c3)c3ccccc23)cc1` [Compound 62, methyl 4-(4-{[3-(1-methylethyl)phenyl]amino}phthalazin-1-yl)benzoate], the 50% inhibitory concentration (IC50) lay in the range of 150 to 500 nM.

For `COC(=O)c1ccc(-c2nnc(Nc3cccc(N(C)C)c3)c3ccccc23)cc1` [Compound 63, methyl 4-(4-{[3-(dimethylamino)phenyl]amino}phthalazin-1-yl)benzoate], the concentration for half-maximal inhibition (IC50) was in the range of 2000 to 30000 nM. Regarding `COC(=O)c1ccc(-c2nnc(Nc3cc(C(F)(F)F)cc(C(F)(F)F)c3)c3ccccc23)c(C)c1` [Compound 64, methyl 4-(4-{[3,5-bis(trifluoromethyl)phenyl]amino}phthalazin-1-yl)-3-methylbenzoate], the IC50 lay in the range of 500 to 1000 nM. As for `COC(=O)c1ccc(-c2nnc(Nc3cc(C)cc(C(F)(F)F)c3)c3ccccc23)cc1` [Compound 65, methyl 4-(4-{[3-methyl-5-(trifluoromethyl)phenyl]amino}phthalazin-1-yl)benzoate], the half-maximal inhibitory concentration (IC50) is no more than 150 nM.

Consider `COC(=O)c1ccc(-c2nnc(Nc3cc(C(F)(F)F)cc(C(F)(F)F)c3)c3ccccc23)cc1` [Compound 66, methyl 4-(4-{[3,5-bis(trifluoromethyl)phenyl]amino}phthalazin-1-yl)benzoate], for which the IC50 was in the range of 150 to 500 nM.
